Laboratory results from ChEMBL document CHEMBL1153701, “Synthesis and evaluation of antiallodynic and anticonvulsant activity of novel amide and urea derivatives of valproic acid analogues” (2009).
The source made the active and inactive calls. The calls are words filed in the database; no cut-off is given here.

Key:
Mus musculus [1] = test: Antiepileptic activity in CF1 mouse assessed as inhibition of maximal electroshock-induced seizures at 300 mg/kg, ip after 0.5 hrs; format: functional, organism-based; parameters: dose 300 mg/kg
Rattus norvegicus [2] = test: Antiallodynic activity in rat assessed as protection against spinal nerve ligation-induced neuropathic pain at 80 mg/kg, ip after 240 mins; format: functional, organism-based; parameters: dose 80 mg/kg
Mus musculus [3] = test: Antiepileptic activity in CF1 mouse assessed as inhibition of subcutaneous pentylenetetrazole-induced seizures at 300 mg/kg, ip after 0.5 hrs; format: functional, organism-based; parameters: dose 300 mg/kg
Rattus norvegicus [4] = test: Antiallodynic activity in rat assessed as protection against spinal nerve ligation-induced neuropathic pain at 80 mg/kg, ip after 120 mins; format: functional, organism-based; parameters: dose 80 mg/kg
Rattus norvegicus [5] = test: Antiallodynic activity in rat assessed as protection against spinal nerve ligation-induced neuropathic pain at 80 mg/kg, ip after 30 mins; format: functional, organism-based; parameters: dose 80 mg/kg
Mus musculus [6] = test: Antiepileptic activity in CF1 mouse assessed as inhibition of maximal electroshock-induced seizures at 30 mg/kg, ip after 0.5 hrs; format: functional, organism-based; parameters: dose 30 mg/kg
Mus musculus [7] = test: Antiepileptic activity in CF1 mouse assessed as inhibition of maximal electroshock-induced seizures at 100 mg/kg, ip after 4 hrs; format: functional, organism-based; parameters: dose 100 mg/kg
Mus musculus [8] = test: Antiepileptic activity in CF1 mouse assessed as inhibition of subcutaneous pentylenetetrazole-induced seizures at 100 mg/kg, ip after 0.5 hrs; format: functional, organism-based; parameters: dose 100 mg/kg
Mus musculus [9] = test: Neurotoxicity in CF1 mouse assessed as protection against motor impairment at 30 mg/kg, ip after 0.5 hrs by rotarod test; format: functional, organism-based; parameters: dose 30 mg/kg
Mus musculus [10] = test: Neurotoxicity in CF1 mouse assessed as protection against motor impairment at 30 mg/kg, ip after 4 hrs by rotarod test; format: functional, organism-based; parameters: dose 30 mg/kg
Mus musculus [11] = test: Neurotoxicity in CF1 mouse assessed as protection against motor impairment at 300 mg/kg, ip after 4 hrs by rotarod test; format: functional, organism-based; parameters: dose 300 mg/kg
Mus musculus [12] = test: Antiepileptic activity in CF1 mouse assessed as inhibition of subcutaneous pentylenetetrazole-induced seizures at 300 mg/kg, ip after 4 hrs; format: functional, organism-based; parameters: dose 300 mg/kg
Mus musculus [13] = test: Antiepileptic activity in CF1 mouse assessed as inhibition of subcutaneous pentylenetetrazole-induced seizures at 30 mg/kg, ip after 0.5 hrs; format: functional, organism-based; parameters: dose 30 mg/kg
Mus musculus [14] = test: Antiepileptic activity in CF1 mouse assessed as inhibition of subcutaneous pentylenetetrazole-induced seizures at 100 mg/kg, ip after 4 hrs; format: functional, organism-based; parameters: dose 100 mg/kg
Mus musculus [15] = test: Neurotoxicity in CF1 mouse assessed as protection against motor impairment at 300 mg/kg, ip after 0.5 hrs by rotarod test; format: functional, organism-based; parameters: dose 300 mg/kg
Mus musculus [16] = test: Antiepileptic activity in CF1 mouse assessed as inhibition of maximal electroshock-induced seizures at 300 mg/kg, ip after 4 hrs; format: functional, organism-based; parameters: dose 300 mg/kg
Mus musculus [17] = test: Antiepileptic activity in CF1 mouse assessed as inhibition of subcutaneous pentylenetetrazole-induced seizures at 30 mg/kg, ip after 4 hrs; format: functional, organism-based; parameters: dose 30 mg/kg
Rattus norvegicus [18] = test: Antiallodynic activity in rat assessed as protection against spinal nerve ligation-induced neuropathic pain at 80 mg/kg, ip after 180 mins; format: functional, organism-based; parameters: dose 80 mg/kg
Rattus norvegicus [19] = test: Anticonvulsant activity in ip dosed albino Sprague-Dawley rat assessed as protection against pilocarpine-induced seizure; format: functional
Mus musculus [20] = test: Neurotoxicity in CF1 mouse assessed as protection against motor impairment at 100 mg/kg, ip after 0.5 hrs by rotarod test; format: functional, organism-based; parameters: dose 100 mg/kg
Rattus norvegicus [21] = test: Antiallodynic activity in rat assessed as protection against spinal nerve ligation-induced neuropathic pain at 80 mg/kg, ip after 60 mins; format: functional, organism-based; parameters: dose 80 mg/kg
Mus musculus [22] = test: Antiepileptic activity in CF1 mouse assessed as inhibition of maximal electroshock-induced seizures at 30 mg/kg, ip after 4 hrs; format: functional, organism-based; parameters: dose 30 mg/kg
Mus musculus [23] = test: Neurotoxicity in CF1 mouse assessed as protection against motor impairment at 100 mg/kg, ip after 4 hrs by rotarod test; format: functional, organism-based; parameters: dose 100 mg/kg
Rattus norvegicus [24] = test: Anticonvulsant activity in albino Sprague-Dawley rat assessed as protection against pilocarpine-induced seizure at 200 mg/kg, ip; format: functional, organism-based; parameters: dose 200 mg/kg
Mus musculus [25] = test: Antiepileptic activity in CF1 mouse assessed as inhibition of maximal electroshock-induced seizures at 100 mg/kg, ip after 0.5 hrs; format: functional, organism-based; parameters: dose 100 mg/kg
Rattus norvegicus [26] = test: Anticonvulsant activity in albino Sprague-Dawley rat assessed as protection against pilocarpine-induced seizure at 200 mg/kg, ip treated after 30 mins of pilcarpine challenge; format: functional, organism-based; parameters: dose 200 mg/kg
Rattus norvegicus [27] = test: Antiallodynic activity in ip dosed rat assessed as protection against spinal nerve ligation-induced neuropathic pain; format: functional
Rattus norvegicus [28] = test: Anticonvulsant activity in albino Sprague-Dawley rat assessed as protection against pilocarpine-induced seizure at 65 mg/kg, ip; format: functional, organism-based; parameters: dose 65 mg/kg
Rattus norvegicus [29] = test: Anticonvulsant activity in albino Sprague-Dawley rat assessed as protection against pilocarpine-induced seizure at 130 mg/kg, ip treated after 30 mins of pilcarpine challenge; format: functional, organism-based; parameters: dose 130 mg/kg
Mus musculus [30] = test: Antiepileptic activity in ip dosed CF1 mouse assessed as inhibition of maximal electroshock-induced seizures; format: functional
Rattus norvegicus [31] = test: Anticonvulsant activity in albino Sprague-Dawley rat assessed as protection against pilocarpine-induced seizure at 100 mg/kg, ip; format: functional, organism-based; parameters: dose 100 mg/kg
Rattus norvegicus [32] = organism: Rattus norvegicus; test: Ratio of ED50 for antiallodynic activity in rat assessed as protection against spinal nerve ligation-induced neuropathic pain to ED50 for antiepileptic activity in rat by maximal electroshock-induced seizures assay; format: functional
Rattus norvegicus [33] = test: Anticonvulsant activity in albino Sprague-Dawley rat assessed as protection against pilocarpine-induced seizure at 450 mg/kg, ip; format: functional, organism-based; parameters: dose 450 mg/kg
Rattus norvegicus [34] = test: Anticonvulsant activity in albino Sprague-Dawley rat assessed as protection against pilocarpine-induced seizure at 600 mg/kg, ip treated after 30 mins of pilcarpine challenge; format: functional, organism-based; parameters: dose 600 mg/kg

CCCCC(CC)C(=O)NC(N)=O (stereo not given)
Activity (Mus musculus [1]): Active | Activity (Rattus norvegicus [2]): inactive | Activity (Mus musculus [3]): Active | Activity (Rattus norvegicus [4]): inactive | Activity (Rattus norvegicus [5]): inactive | Activity (Mus musculus [6]): inactive | Activity (Mus musculus [7]): inactive | Activity (Mus musculus [8]): inactive | Activity (Mus musculus [9]): inactive | Activity (Mus musculus [10]): inactive | Activity (Mus musculus [11]): inactive | Activity (Mus musculus [12]): inactive | Activity (Mus musculus [13]): inactive | Activity (Mus musculus [14]): inactive | Activity (Mus musculus [15]): Active | Activity (Mus musculus [16]): inactive | Activity (Mus musculus [17]): inactive | Activity (Rattus norvegicus [18]): inactive | ED50 (Rattus norvegicus [19]): 247 mg/kg | ED97 (Rattus norvegicus [19]): 439 mg/kg | Activity (Mus musculus [20]): inactive | Activity (Rattus norvegicus [21]): inactive | Activity (Mus musculus [22]): inactive | Activity (Mus musculus [23]): inactive

CCC(C(N)=O)C(C)(C)C (stereo not given)
Activity (Mus musculus [1]): inactive | Activity (Rattus norvegicus [24]): Active | Activity (Rattus norvegicus [2]): inactive | Activity (Mus musculus [3]): Active | Activity (Mus musculus [6]): inactive | Activity (Mus musculus [7]): inactive | Activity (Mus musculus [8]): inactive | Activity (Mus musculus [9]): inactive | Activity (Mus musculus [10]): inactive | Activity (Mus musculus [25]): inactive | Activity (Mus musculus [11]): inactive | Activity (Mus musculus [12]): inactive | Activity (Mus musculus [13]): inactive | Activity (Mus musculus [14]): inactive | Activity (Mus musculus [16]): Active | Activity (Mus musculus [17]): inactive | ED50 (Rattus norvegicus [19]): 257 mg/kg | ED97 (Rattus norvegicus [19]): 451 mg/kg | Activity (Mus musculus [20]): inactive | Activity (Mus musculus [22]): inactive | Activity (Mus musculus [23]): inactive

CCCC(C(=O)NC(N)=O)C(C)C (stereo not given)
Activity (Mus musculus [1]): inactive | Activity (Mus musculus [3]): Active | Activity (Rattus norvegicus [4]): inactive | Activity (Rattus norvegicus [5]): inactive | Activity (Mus musculus [6]): inactive | Activity (Mus musculus [7]): inactive | Activity (Mus musculus [8]): Active | Activity (Mus musculus [25]): inactive | Activity (Mus musculus [11]): inactive | Activity (Rattus norvegicus [26]): Active | Activity (Mus musculus [12]): inactive | Activity (Mus musculus [13]): inactive | Activity (Mus musculus [14]): inactive | Activity (Mus musculus [16]): Active | Activity (Mus musculus [17]): inactive | Activity (Rattus norvegicus [18]): inactive | Activity (Rattus norvegicus [21]): inactive | Activity (Mus musculus [22]): inactive

CCCC(C(N)=O)C(C)CC (stereo not given)
Activity (Mus musculus [1]): Active | ED50 (Rattus norvegicus [27]): 49 mg/kg | Activity (Mus musculus [3]): Active | Activity (Rattus norvegicus [28]): Active | Activity (Mus musculus [6]): inactive | Activity (Mus musculus [7]): inactive | Activity (Mus musculus [8]): inactive | Activity (Mus musculus [9]): inactive | Activity (Mus musculus [10]): inactive | Activity (Rattus norvegicus [29]): Active | Activity (Mus musculus [11]): inactive | Activity (Mus musculus [12]): inactive | Activity (Mus musculus [13]): inactive | Activity (Mus musculus [14]): inactive | Activity (Mus musculus [16]): inactive | Activity (Mus musculus [17]): inactive | ED50 (Rattus norvegicus [19]): 84 mg/kg | ED97 (Rattus norvegicus [19]): 149 mg/kg | Activity (Mus musculus [20]): inactive | ED50 (Mus musculus [30]): inactive | Activity (Mus musculus [22]): inactive | Activity (Mus musculus [23]): inactive

CC(C)(C)CC(=O)NC(N)=O
Activity (Mus musculus [1]): Active | ED50 (Rattus norvegicus [27]): 74 mg/kg | Activity (Mus musculus [3]): Active | Activity (Mus musculus [6]): inactive | Activity (Mus musculus [7]): inactive | Activity (Mus musculus [9]): inactive | Activity (Mus musculus [10]): inactive | Activity (Mus musculus [25]): inactive | Activity (Mus musculus [11]): inactive | Activity (Rattus norvegicus [31]): Active | Activity (Mus musculus [12]): inactive | Activity (Mus musculus [13]): inactive | Activity (Mus musculus [14]): inactive | Activity (Mus musculus [15]): Active | Activity (Mus musculus [16]): inactive | Activity (Mus musculus [17]): inactive | ED50 (Mus musculus [30]): 64 mg/kg | ratio (Rattus norvegicus [32]): 0.86 | Activity (Mus musculus [22]): inactive | Activity (Mus musculus [23]): inactive

CCCC(C(N)=O)C(C)(C)C (stereo not given)
Activity (Mus musculus [1]): Active | Activity (Mus musculus [3]): Active | Activity (Rattus norvegicus [28]): Active | Activity (Mus musculus [6]): inactive | Activity (Mus musculus [8]): inactive | Activity (Mus musculus [9]): inactive | Activity (Mus musculus [10]): inactive | Activity (Rattus norvegicus [29]): Active | Activity (Mus musculus [12]): inactive | Activity (Mus musculus [13]): inactive | Activity (Mus musculus [14]): inactive | Activity (Mus musculus [16]): Active | Activity (Mus musculus [17]): inactive | Activity (Mus musculus [22]): inactive | Activity (Mus musculus [23]): inactive

CC(C)C(C)C(N)=O (stereo not given)
Activity (Mus musculus [1]): inactive | Activity (Mus musculus [3]): inactive | Activity (Mus musculus [6]): inactive | Activity (Rattus norvegicus [33]): Active | Activity (Mus musculus [7]): inactive | Activity (Mus musculus [8]): inactive | Activity (Mus musculus [9]): inactive | Activity (Mus musculus [10]): inactive | Activity (Mus musculus [25]): inactive | Activity (Mus musculus [11]): inactive | Activity (Mus musculus [12]): inactive | Activity (Mus musculus [13]): inactive | Activity (Mus musculus [14]): inactive | Activity (Mus musculus [15]): inactive | Activity (Mus musculus [16]): inactive | Activity (Mus musculus [17]): inactive | Activity (Mus musculus [20]): inactive | Activity (Mus musculus [22]): inactive | Activity (Mus musculus [23]): inactive | Activity (Rattus norvegicus [34]): Active
